Measurements from patent US20100029604A1, “ANTIBACTERIAL COMBINATION AND ITS USE” (priority 2007, published 2010).
Like-named read-outs stand apart in the source and are kept apart here.

Legend:
Klebsiella oxytoca LXA-1 = assay: MIC, characterised β-lactamase producing strain (Example 5, Tables 5-7); assay type: cell-based; conditions: Klebsiella oxytoca LXA-1, functional group 2b; LK-157 in combination constant 4 μg/mL
Escherichia coli TEM-30 = assay: as above; assay type: cell-based; conditions: Table 6, LK-157 at constant 4 μg/mL in combination
C. freundii SHV-5 [1] = assay: Synergy MIC, inhibitor at 4 μg/mL (Example 4); assay type: cell-based; conditions: SHV-5, class A, inhibitor constant 4 μg/mL
[2] = system: Klebsiella pneumoniae CTX-M15; assay: MIC, characterised β-lactamase producing strain (Example 5, Table 7); assay type: cell-based; conditions: CTXM15, combination at constant concentration ratio (2:1)
Excerpt: (§1) Their MICs were compared with that of cefotaxime, cefotaxime/tazobactam, ceftazidime, ceftazidime/tazobactam, cefepime, cefepime/tazobactam, and piperacillin/tazobactam.

[3] = system: Klebsiella pneumoniae CTX-M1; assay: as above; assay type: cell-based; conditions: CTXM1, combination at constant concentration ratio (2:1)
Excerpt: as §1

[4] = system: Klebsiella pneumoniae CTX-M14; assay: as above; assay type: cell-based; conditions: CTXM14, combination at constant concentration ratio (2:1)
Excerpt: as §1

Escherichia coli CTX-M15 = assay: as above; assay type: cell-based; conditions: CTXM15, combination at constant concentration ratio (2:1)
Excerpt: as §1

[5] = system: Enterobacter cloacae CTX-M9; assay: as above; assay type: cell-based; conditions: CTXM9, combination at constant concentration ratio (2:1)
Excerpt: as §1

Escherichia coli CTX-M9 = assay: as above; assay type: cell-based; conditions: CTXM9, combination at constant concentration ratio (2:1)
Excerpt: as §1

S. aureus PC = assay: Synergy MIC, inhibitor at 4 μg/mL (Example 3); assay type: cell-based, Staphylococcus aureus; conditions: S. aureus, β-lactamase PC, inhibitor constant 4 μg/mL
Protocol: (§2) Stock solutions of the test compounds and control antibiotics were prepared in distilled water according to the NCCLS guidelines [Methods for dilution antimicrobial tests for bacteria that grow aerobically. NCCLS document M7-A5; 2000; vol. 19. National Committee for Clinical Laboratory Standards, Villanova, Pa.]. All drug weights were corrected for salt forms and refer to the pure drug substance.
(§3) All tested strains and Clinical isolates were either purchased from the American Type Culture Collection (ATCC), or from the in-house company culture collection.
(§4) Stock cultures were prepared from broth cultures grown at 35° C. for 18-22 h without agitation and subsequent addition of 5% DMSO (v/v, final concentration) as cryoprotectant and stored frozen in liquid nitrogen. Mueller-Hinton II broth (MHBII) (BBL Cockeysville, Md.) was used for the testing procedure.
(§5) The in vitro activities of the antibiotics were determined by the broth microdilution method and agar dilution technique as recommended by CLSI guidelines. The MIC experiments were performed in duplicate in 96-well microtiter plates using MHB. Serial twofold dilutions of each antibiotic either alone or in combination with a constant amount (4 μg/mL) of a β-lactamase inhibitor were prepared in MHBII broth. A sterile pipette tip was used to mix the contents of each well (one tip was used going from the low to the high concentration in the same column). The bacterial suspension with final inoculum 10^5 CFU/mL was transferred to the test medium containing the antibacterial substances by a multipoint inoculator (Dynatech, Chantilly, Va., USA). The plates were then incubated at 35° C. for 24 h.
(§6) Representative compound of Formula (I) was evaluated against the serine-based Class A β-lactamases including TEM-type, SHV-type extended spectrum β-lactamases (ESBL) and various non-ESBL enzymes of enterobacteriaceae as well as BRO-type enzymes of Moraxella catarrhalis and penicillinases of Staphylococcus aureus.

E. coli TEM-3 = assay type: cell-based; conditions: β-lactamase TEM-3 (Table 3 r16), inhibitor constant 4 μg/mL
Protocol: as §2, §3, §4, §5, §6

E. coli TEM-1 = assay type: cell-based; conditions: inhibitor constant 4 μg/mL
Protocol: as §2, §3, §4, §5, §6

C. freundii ESBL = assay: Synergy MIC, inhibitor at 4 μg/mL (Example 3); assay type: cell-based; conditions: ESBL (Table 3 r25), inhibitor constant 4 μg/mL
Protocol: as §2, §3, §4, §5, §6

K. oxytoca ESBL = assay: Synergy MIC, inhibitor at 4 μg/mL (Example 3); assay type: cell-based; conditions: ESBL (Table 3 r26), inhibitor constant 4 μg/mL
Protocol: as §2, §3, §4, §5, §6

C. freundii SHV-5 [6] = assay: Synergy MIC, inhibitor at 4 μg/mL (Example 3); assay type: cell-based; conditions: β-lactamase SHV-5 (Table 3 r10), inhibitor constant 4 μg/mL
Protocol: as §2, §3, §4, §5, §6

M. catarrhalis BRO-2 = assay: Synergy MIC, inhibitor at 4 μg/mL (Example 3); assay type: cell-based, Moraxella catarrhalis; conditions: β-lactamase BRO-2 (Table 3 r18), inhibitor constant 4 μg/mL
Protocol: as §2, §3, §4, §5, §6

M. catarrhalis BRO-1 = assay: Synergy MIC, inhibitor at 4 μg/mL (Example 3); assay type: cell-based, Moraxella catarrhalis; conditions: M. catarrhalis, β-lactamase BRO-1 (Table 3 r17); inhibitor constant 4 μg/mL
Protocol: as §2, §3, §4, §5, §6

CO/N=C(\C(=O)N[C@@H]1C(=O)N2C(C(=O)[O-])=C(C[N+]3(C)CCCC3)CS[C@H]12)c1csc(N)n1 [cefepime]
MIC (Klebsiella oxytoca LXA-1): 0.125 µg/mL

CO/N=C(\C(=O)N[C@@H]1C(=O)N2C(C(=O)O)=C(COC(C)=O)CS[C@H]12)c1csc(N)n1 [cefotaxime]
MIC (Escherichia coli TEM-30): 0.031 µg/mL
MIC (C. freundii SHV-5 [1]): 25.6 µg/mL

CC(C)(O/N=C(\C(=O)N[C@@H]1C(=O)N2C(C(=O)[O-])=C(C[n+]3ccccc3)CS[C@H]12)c1csc(N)n1)C(=O)O [ceftazidime]
MIC [2]: 32 µg/mL
MIC [3]: 16 µg/mL
MIC [4]: 8 µg/mL
MIC (Escherichia coli CTX-M15): 32 µg/mL
MIC [5]: 0.5 µg/mL
MIC (Escherichia coli CTX-M9): 2 µg/mL
MIC (S. aureus PC; first listed (Table 3 r19)): 12.8 µg/mL
MIC (S. aureus PC; second listed (Table 3 r20)): 25.6 µg/mL
MIC (E. coli TEM-3): > 25.6 µg/mL
MIC (E. coli TEM-1; β-lactamase TEM-1, first listed (Table 3 r14)): 0.2 µg/mL
MIC (E. coli TEM-1; β-lactamase TEM-1, second listed (Table 3 r15)): 3.2 µg/mL
MIC (C. freundii ESBL): > 25.6 µg/mL
MIC (K. oxytoca ESBL): 0.4 µg/mL
MIC (C. freundii SHV-5 [6]): > 25.6 µg/mL
MIC (M. catarrhalis BRO-2): 0.05 µg/mL
MIC (M. catarrhalis BRO-1): 0.2 µg/mL
